Assay results as given in patent US20160002299A1, “NON-IMMUNOSUPPRESSIVE CYCLOSPORIN DERIVATIVES AS ANTIVIRAL AGENTS” (UCL BUSINESS PLC, priority 2013, published 2016).

Columns and labels:
HIV-1 [1] = assay: Single round HIV-1 infection of monocyte derived macrophages; type: cell-based; details: MDM at MOI of 0.1-1, in the presence of Compound 1, FIG. 4
Protocol: (§1) Primary monocyte-derived macrophages (MDM) were prepared from fresh blood from healthy volunteers. Peripheral blood mononuclear cells were isolated by Ficoll-Hypaque (Axis-Shield) density centrifugation. The isolated cells were washed with PBS and plated in RPMI (Invitrogen) supplemented with 10% heat-inactivated autologous human serum (HS) and 40 ng/ml macrophage colony stimulating factor (M-CSF) (R&D systems). The medium was then refreshed after 3 days (RPMI 1640 with 10% HS), removing any remaining non-adherent cells. After 6 days, media was replenished with
(§2) RPMI containing 5% type AB HS (Sigma-Aldrich-Aldrich). Replicate experiments were performed with cells derived from different donors.
(§3) Virus particles were produced by transient transfection of HEK293T cells. 3.5 μg of molecular clone DNA; NL4.3 Bal was transfected using Fugene 6 transfection reagent (Promega). Virus supernatants were harvested 48 hr, 72 hr and 96 hr post transfection. […] All virus preparations were quantified by reverse transcriptase (RT) enzyme linked immunosorbant assay (ELISA) (Roche). […]
(§4) Institute of Biological Standards AIDS Reagents Programme) and a secondary antibody linked to beta galactosidase. […] Cells were stained for Gag p24 at specific time points after infection and infected colonies counted. […]

HIV-1 [2] = assay: HIV-1 replication in monocyte derived macrophages (Gag p24 staining, infected cells counted); type: cell-based; details: primary MDM, NL4.3 Bal, MOI 0.2, 10 μM Compound 1 vs DMSO control, FIG. 2
Protocol: as §1, §2, §3, §4

IFN-β = IFN-β ELISA of supernatants of HIV-1 infected monocyte derived macrophages; type: cell-based, human; details: HIV-1 infected MDM, 10 μM Compound 1, supernatants, FIG. 3
Protocol: as §1, §2, §3, §4

C/C=C/C[C@@H](C)[C@@H](O)[C@H]1C(=O)N[C@@H](CC)C(=O)N(C)[C@H](Cc2ccc(C(=O)O)cc2)C(=O)N(C)[C@@H](CC(C)C)C(=O)N[C@@H](C(C)C)C(=O)N(C)[C@@H](CC(C)C)C(=O)N[C@@H](C)C(=O)N[C@H](C)C(=O)N(C)[C@@H](CC(C)C)C(=O)N(C)[C@@H](CC(C)C)C(=O)N(C)[C@@H](C(C)C)C(=O)N1C [Compound 1]
infection lower after single round infection (HIV-1 [1]): 5-7 fold
HIV-1 replication (number of infected cells) (HIV-1 [2]): completely suppressed HIV-1 replication
production of IFN-β (IFN-β): elicited the production of IFN-β
